Data: PubChem BioAssay AID330 (DTP/NCI, 2004)
Values joined by “and” are separate entries in the source; they are usually repeats but may differ in a detail not shown here. Equal entries are not always repeated. Toxic doses and inconclusive results are not listed.

Test system: P388 leukemia ip, CD2F1 mice, survival T/C
Assay: NCI In Vivo Anticancer Drug Screen. Data for tumor model P388 Leukemia (intraperitoneal) in CD2F1 (CDF1) mice
Details: endpoint: median survival time, higher = longer survival
Outline: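 Mice carrying the transplanted tumor received test compound or vehicle. Survival was recorded in each group, and the value is the treated-group measurement divided by that of the vehicle-treated control group.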

[1] = dose: 60.0 mg/kg/injection, schedule: Q01DX005 (ip), vehicle: saline with Tween-80
[2] = dose: 120.0 mg/kg/injection, schedule: Q01DX005 (ip), vehicle: saline with Tween-80
[3] = dose: 240.0 mg/kg/injection, schedule: Q01DX005 (ip), vehicle: saline with Tween-80
[4] = dose: 50.0 mg/kg/injection, schedule: Q01DX009 (ip), vehicle: saline with Tween-80
[5] = dose: 100.0 mg/kg/injection, schedule: Q01DX009 (ip), vehicle: saline with Tween-80
[6] = dose: 25.0 mg/kg/injection, schedule: Q01DX009 (ip), vehicle: saline with Tween-80
[7] = dose: 200.0 mg/kg/injection, schedule: Q04DX003 (ip), vehicle: saline with Tween-80
[8] = dose: 25.0 mg/kg/injection, schedule: Q04DX003 (ip), vehicle: saline with Tween-80
[9] = dose: 100.0 mg/kg/injection, schedule: Q04DX003 (ip), vehicle: saline with Tween-80
[10] = dose: 50.0 mg/kg/injection, schedule: Q01DX005 (ip), vehicle: saline with Tween-80
[11] = dose: 100.0 mg/kg/injection, schedule: Q01DX005 (ip), vehicle: saline with Tween-80
[12] = dose: 200.0 mg/kg/injection, schedule: Q01DX005 (ip), vehicle: saline with Tween-80
[13] = dose: 50.0 mg/kg/injection, schedule: Q01DX009 (ip), vehicle: saline
[14] = dose: 50.0 mg/kg/injection, schedule: Q01DX005 (ip), vehicle: saline

Q: With CC(=O)OCC12CC(c3ccoc3)OC3CCC4C(=O)OC(CC1C)C4(C)C32 (centres undefined) as the compound, how does the T/C (dose: 5.25 mg/kg/injection, schedule: Q01DX005 (ip), vehicle: Klucel (hydroxypropylcellulose) (HPC)) read?
A: 106 % of control

Q: And the T/C (dose: 10.5 mg/kg/injection, schedule: Q01DX005 (ip), vehicle: Klucel (hydroxypropylcellulose) (HPC))?
A: 95 % of control

Q: What about the T/C (dose: 21.0 mg/kg/injection, schedule: Q01DX005 (ip), vehicle: Klucel (hydroxypropylcellulose) (HPC)) of the same compound?
A: 100 % of control

Q: What about the T/C (dose: 42.0 mg/kg/injection, schedule: Q01DX005 (ip), vehicle: Klucel (hydroxypropylcellulose) (HPC)) of the same compound?
A: 93 % of control

Q: Which results are given for NNc1ncnc2cccc(Cl)c12?
A: T/C [1]: 94 % of control; T/C [2]: 98 % of control; T/C [3]: 92 % of control

Q: NN(Cc1ccccc1[N+](=O)[O-])c1ccccc1 was tested. Which T/C [4] did it give?
A: 100 % of control

Q: What about the T/C [5] of the same compound?
A: 86 % of control

Q: And the T/C (dose: 200.0 mg/kg/injection, schedule: Q01DX009 (ip), vehicle: saline with Tween-80)?
A: 101 % of control

Q: With N#CCCNNc1ccccc1 as the compound, how does the T/C (dose: 50.0 mg/kg/injection, schedule: Q01DX001 (ip), vehicle: saline) read?
A: 100 % of control

Q: What about the T/C (dose: 100.0 mg/kg/injection, schedule: Q01DX001 (ip), vehicle: saline) of the same compound?
A: 106 % of control

Q: And the T/C (dose: 200.0 mg/kg/injection, schedule: Q01DX001 (ip), vehicle: saline)?
A: 97 % of control

Q: What does the source list for CCCCCCCCCCCCCCCCCCSC1=CC(=O)C(OC)=C(OC)C1=O?
A: T/C (dose: 3.13 mg/kg/injection, schedule: Q01DX009 (ip), vehicle: Klucel (hydroxypropylcellulose) (HPC)): 92 % of control; T/C (dose: 6.25 mg/kg/injection, schedule: Q01DX009 (ip), vehicle: Klucel (hydroxypropylcellulose) (HPC)): 100 % of control; T/C (dose: 12.5 mg/kg/injection, schedule: Q01DX009 (ip), vehicle: Klucel (hydroxypropylcellulose) (HPC)): 100 % of control; T/C (dose: 25.0 mg/kg/injection, schedule: Q01DX009 (ip), vehicle: Klucel (hydroxypropylcellulose) (HPC)): 92 % of control; T/C (dose: 50.0 mg/kg/injection, schedule: Q01DX009 (ip), vehicle: Klucel (hydroxypropylcellulose) (HPC)): 97 % of control

Q: What does the source list for Cc1cc(O)c2c(c1)C(=O)c1c(-c3ccc(O)c4c3C(=O)c3c(O)c(C)cc(O)c3C4=O)ccc(O)c1C2=O?
A: T/C (dose: 3.0 mg/kg/injection, schedule: Q01DX005 (ip), vehicle: Klucel (hydroxypropylcellulose) (HPC)): 95 % of control; T/C (dose: 6.0 mg/kg/injection, schedule: Q01DX005 (ip), vehicle: Klucel (hydroxypropylcellulose) (HPC)): 95 % of control; T/C (dose: 12.0 mg/kg/injection, schedule: Q01DX005 (ip), vehicle: Klucel (hydroxypropylcellulose) (HPC)): 93 % of control; T/C (dose: 24.0 mg/kg/injection, schedule: Q01DX005 (ip), vehicle: Klucel (hydroxypropylcellulose) (HPC)): 86 % of control

Q: With CCN(CC)N=Nc1ccc(NC(C)=O)cc1 as the compound, how does the T/C (dose: 6.25 mg/kg/injection, schedule: Q04DX003 (ip), vehicle: Klucel (hydroxypropylcellulose) (HPC)) read?
A: 102 % of control

Q: And the T/C (dose: 12.5 mg/kg/injection, schedule: Q04DX003 (ip), vehicle: Klucel (hydroxypropylcellulose) (HPC))?
A: 101 % of control

Q: What about the T/C (dose: 25.0 mg/kg/injection, schedule: Q04DX003 (ip), vehicle: Klucel (hydroxypropylcellulose) (HPC)) of the same compound?
A: 102 % of control

Q: CSc1ccccc1C(=S)N1CCOCC1 was tested. Which T/C (dose: 100.0 mg/kg/injection, schedule: Q01DX001 (ip), vehicle: saline with Tween-80) did it give?
A: 100 % of control

Q: What about the T/C (dose: 200.0 mg/kg/injection, schedule: Q01DX001 (ip), vehicle: saline with Tween-80) of the same compound?
A: 90 % of control

Q: And the T/C (dose: 400.0 mg/kg/injection, schedule: Q01DX001 (ip), vehicle: saline with Tween-80)?
A: 109 % of control

Q: For C1CC1C(=NN=C(C1CC1)C1CC1)C1CC1, which T/C (dose: 6.25 mg/kg/injection, schedule: Q01DX009 (ip), vehicle: saline with Tween-80) is on record?
A: 102 % of control

Q: And the T/C (dose: 12.5 mg/kg/injection, schedule: Q01DX009 (ip), vehicle: saline with Tween-80)?
A: 101 % of control

Q: And the T/C [6]?
A: 96 % of control

Q: How did the T/C [1] turn out when CC(=O)Nc1cnc2c(nc3cc(C)ccn32)c1C was run?
A: 106 % of control

Q: What about the T/C [2] of the same compound?
A: 100 % of control

Q: What about the T/C [3] of the same compound?
A: 97 % of control

Q: CCCNC(=O)Nc1cc(Cl)ccc1OC was tested. Which T/C (dose: 132.0 mg/kg/injection, schedule: Q04DX003 (ip), vehicle: saline with Tween-80) did it give?
A: 100 % of control

Q: What about the T/C [7] of the same compound?
A: 100 % of control

Q: And the T/C (dose: 300.0 mg/kg/injection, schedule: Q04DX003 (ip), vehicle: saline with Tween-80)?
A: 100 % of control

Q: How did the T/C [8] turn out when NC(C(=O)O)c1ccc(CBr)cc1 (centres undefined) was run?
A: 151 % of control

Q: And the T/C [9]?
A: 151 % of control and 165 % of control

Q: Which results are given for O=[N+]([O-])c1ccc2c(N3CCC(CCCC4CCN(c5ncnc6cc([N+](=O)[O-])ccc56)CC4)CC3)ncnc2c1?
A: T/C [10]: 89 % of control; T/C [11]: 96 % of control; T/C [12]: 100 % of control

Q: For [N-]=[N+]=C(S(=O)(=O)O)S(=O)(=O)O, which T/C [13] is on record?
A: 107 % of control

Q: What about the T/C (dose: 100.0 mg/kg/injection, schedule: Q01DX009 (ip), vehicle: saline) of the same compound?
A: 112 % of control

Q: And the T/C (dose: 200.0 mg/kg/injection, schedule: Q01DX009 (ip), vehicle: saline)?
A: 107 % of control

Q: What about the T/C (dose: 400.0 mg/kg/injection, schedule: Q01DX009 (ip), vehicle: saline) of the same compound?
A: 107 % of control

Q: With CCN(CC)c1ccc(NC(c2ccccc2)C(O)c2ccccc2)cc1 (centres undefined) as the compound, how does the T/C (dose: 50.0 mg/kg/injection, schedule: Q01DX005 (ip), vehicle: Klucel (hydroxypropylcellulose) (HPC)) read?
A: 96 % of control

Q: What about the T/C (dose: 100.0 mg/kg/injection, schedule: Q01DX005 (ip), vehicle: Klucel (hydroxypropylcellulose) (HPC)) of the same compound?
A: 104 % of control

Q: How did the T/C [1] turn out when CCOc1ccc2ccc3cccnc3c2n1 was run?
A: 96 % of control

Q: What about the T/C [2] of the same compound?
A: 94 % of control

Q: What about the T/C [3] of the same compound?
A: 99 % of control

Q: Which T/C (dose: 60.0 mg/kg/injection, schedule: Q01DX005 (ip), vehicle: saline) does the source give for O=C(COc1ccc(Cl)cc1)OCCN1CCCCCC1 here?
A: 109 % of control

Q: And the T/C (dose: 120.0 mg/kg/injection, schedule: Q01DX005 (ip), vehicle: saline)?
A: 110 % of control

Q: And the T/C (dose: 240.0 mg/kg/injection, schedule: Q01DX005 (ip), vehicle: saline)?
A: 100 % of control

Q: With COCCOC(C)C(/C=N/N=C(N)N)=N/N=C(N)N (centres undefined) as the compound, how does the T/C (dose: 12.5 mg/kg/injection, schedule: Q01DX005 (ip), vehicle: saline) read?
A: 101 % of control

Q: And the T/C (dose: 25.0 mg/kg/injection, schedule: Q01DX005 (ip), vehicle: saline)?
A: 103 % of control

Q: And the T/C [14]?
A: 99 % of control and 101 % of control

Q: Which results are given for O=[N+]([O-])c1ccc(Sc2nc3ccccc3[nH]2)nc1?
A: T/C (dose: 50.0 mg/kg/injection, schedule: Q01DX009 (ip), vehicle: suspension in saline): 100 % of control; T/C (dose: 100.0 mg/kg/injection, schedule: Q01DX009 (ip), vehicle: suspension in saline): 100 % of control; T/C (dose: 200.0 mg/kg/injection, schedule: Q01DX009 (ip), vehicle: suspension in saline): 99 % of control

Q: C/C(=N\N=C(\[Se])N1CCN(c2ccccn2)CC1)c1ccccn1 was tested. Which T/C (dose: 12.5 mg/kg/injection, schedule: Q04DX003 (ip), vehicle: saline with Tween-80) did it give?
A: 108 % of control

Q: And the T/C [8]?
A: 109 % of control and 116 % of control

Q: What about the T/C (dose: 50.0 mg/kg/injection, schedule: Q04DX003 (ip), vehicle: saline with Tween-80) of the same compound?
A: 113 % of control

Q: And the T/C [9]?
A: 115 % of control and 124 % of control

Q: What about the T/C [7] of the same compound?
A: 115 % of control

Q: For CN1CC(F)OC(F)(F)C1 (centres undefined), which T/C [14] is on record?
A: 102 % of control

Q: And the T/C (dose: 100.0 mg/kg/injection, schedule: Q01DX005 (ip), vehicle: saline)?
A: 100 % of control

Q: What about the T/C (dose: 200.0 mg/kg/injection, schedule: Q01DX005 (ip), vehicle: saline) of the same compound?
A: 100 % of control

Q: Which T/C [10] does the source give for Cc1c2c(c(O)c3sccc13)C(C)(C)OC2=O here?
A: 101 % of control

Q: What about the T/C [11] of the same compound?
A: 99 % of control

Q: What about the T/C [12] of the same compound?
A: 97 % of control

Q: O=P(=O)OP(=O)=O.[O]=[W](=[O])=[O] was tested. Which T/C [6] did it give?
A: 100 % of control

Q: And the T/C [4]?
A: 100 % of control

Q: And the T/C [5]?
A: 95 % of control

Q: Which T/C (dose: 12.5 mg/kg/injection, schedule: Q01DX009 (ip), vehicle: saline) does the source give for CCOC(=O)NN here?
A: 111 % of control

Q: And the T/C (dose: 25.0 mg/kg/injection, schedule: Q01DX009 (ip), vehicle: saline)?
A: 92 % of control

Q: Which T/C [10] does the source give for O=C(CCCC(=O)Nc1ccc2c(=O)c3ccccc3[nH]c2c1)Nc1ccc2c(=O)c3ccccc3[nH]c2c1 here?
A: 98 % of control

Q: What about the T/C [11] of the same compound?
A: 104 % of control

Q: And the T/C [12]?
A: 100 % of control

Q: How did the T/C [13] turn out when C=CCN(C#N)CC=C was run?
A: 96 % of control

Q: With O=C1NN2CCN=C2c2cccnc21 as the compound, how does the T/C (dose: 3.75 mg/kg/injection, schedule: Q01DX005 (ip), vehicle: saline with Tween-80) read?
A: 100 % of control

Q: What about the T/C (dose: 7.5 mg/kg/injection, schedule: Q01DX005 (ip), vehicle: saline with Tween-80) of the same compound?
A: 95 % of control

Q: What about the T/C (dose: 15.0 mg/kg/injection, schedule: Q01DX005 (ip), vehicle: saline with Tween-80) of the same compound?
A: 100 % of control and 93 % of control

Q: What about the T/C [1] of the same compound?
A: 101 % of control
